Measurements taken from the NIST ThermoML archive (doi:10.1016/j.fluid.2008.07.003).

Settings: Liquid

FCC(F)(F)F [1,1,1,2-tetrafluoroethane]
Settings | vapor or sublimation pressure [kPa]
283.15 K | 416
293.15 K | 572.4
303.15 K | 771.5
313.15 K | 1017.5
323.15 K | 1318.8
333.15 K | 1681.6
343.15 K | 2114.5
353.15 K | 2629
